Consider one compound from US20250312299A1, “COMPOSITION COMPRISING THIOUREA DERIVATIVE FOR PREVENTION OR TREATMENT OF FIBROTIC DISEASE” (THERASID BIOSCIENCE INC., priority 2022, published 2025).

What all share (format): cell-based
One series deals with LX2 cells. Kind of series: CCK-8 cell viability assay, liver cell line (LX2). Conditions: LX2 liver (stellate) cells, 20 μM, 24 hours, CCK-8, FIG. 1. The procedure: LX2 cells, which are liver cells (stellate cells), were seeded at 1×10^4 per well in a 96 well plate, cultured for 24 hours in a 37° C., 5% CO2 incubator, and then treated with the compound of the present invention (TB-840) at a concentration of 20 μM for 24 hours. After culturing for 24 hours, the cells were treated with 10 μl of CCK-8 solution for 2 hours.

The subject of the next series is A549 cells. Description: CCK-8 cell viability assay, lung cell line (A549). To be noted: A549 lung carcinoma cells, 20 μM, 24 hours, CCK-8, FIG. 2. The procedure:
A549 cells, which are lung cells (lung carcinoma cells), were seeded at 1.5×10^4 per well in a 96 well plate, cultured for 24 hours in a 37° C., 5% CO2 incubator, and then treated with the compound of the present invention (TB-840) at a concentration of 20 μM for 24 hours. After culturing for 24 hours, the cells were treated with 10 μl of CCK-8 solution for 2 hours.

For another series, the system named is HK-2 cells. Description: CCK-8 cell viability assay, kidney cell line (HK-2). Conditions: HK-2 kidney proximal tubular cells, 20 μM, 24 hours, CCK-8, FIG. 3. The procedure: HK-2 cells, which are kidney cells (proximal tubular cells), were seeded at 1×10^4 per well in a 96 well plate, cultured for 24 hours in a 37° C., 5% CO2 incubator, and then treated with the compound of the present invention (TB-840) at a concentration of 20 μM for 24 hours. After culturing for 24 hours, the cells were treated with 10 μl of CCK-8 solution for 2 hours.

The subject of series [1] is collagen type 1 (COL1A1). Kind of series: RT-qPCR gene expression of COL1A1 in TGF-β treated LX2 cells. Conditions: TGF-β 10 ng/ml + compound 20 μM, 24 hours, FIG. 4. The procedure:
(§1) In order to confirm the inhibitory effect of the compound of the present invention on the gene expression of fibrosis-related markers, the gene expression of collagen type 1 (type 1 collagen; COL1A1) and fibronectin, which are fibrosis-related markers, was confirmed through RT-qPCR analysis. As a control group, TGF-β (transforming growth factor-β) was used. TGF-β is known to promote the production of extracellular matrix such as collagen and promote fibrosis of tissues.
(§2) LX2 cells were seeded at 3.5×10^5 per well in a 6 well plate, cultured for 24 hours in a 37° C., 5% CO2 incubator, and then treated with TGF-β at a concentration of 10 ng/ml and the compound of the present invention (TB-840) at a concentration of 20 μM, and cultured for 24 hours. After culturing for 24 hours, the cells were washed twice with phosphate buffered saline (PBS), and then RNA extraction was performed using a RNA-spin™ total RNA extraction kit (iNtRON Biotechnology, Cat no. 17211) protocol. Thereafter, the RNA concentration was measured using a Nanodrop device, and cDNA was synthesized using a Maxime™ RT PreMix (iNtRON Biotechnology, Cat no. 25081) and a MiniAmp™ Termal Cycler device. Thereafter, the gene expression levels of COL1A1 and fibronectin were measured using a QuantStudio 5 Real-Time PCR device.

Series [2] has as its system fibronectin. Description: RT-qPCR gene expression of fibronectin in TGF-β treated LX2 cells. To be noted: TGF-β 10 ng/ml + compound 20 μM, 24 hours, FIG. 5. The procedure:
as §1, §2

Series [3] relates to collagen type 1 (COL1A1). Description: RT-qPCR gene expression of COL1A1 in TGF-β treated A549 cells. Conditions: TGF-β 10 ng/ml + compound 20 μM, 24 hours, FIG. 6. The procedure: as §1
as §2, with “A549” for “LX2”, “2.5×10^5” for “3.5×10^5”

Series [4] concerns fibronectin. Description: RT-qPCR gene expression of fibronectin in TGF-β treated A549 cells. To be noted: TGF-β 10 ng/ml + compound 20 μM, 24 hours, FIG. 7. The procedure:
as §1
as §2, with “A549” for “LX2”, “2.5×10^5” for “3.5×10^5”

Series [5] has as its system collagen type 1 (COL1A1). Description: RT-qPCR gene expression of COL1A1 in TGF-β treated HK-2 cells. To be noted: TGF-β 10 ng/ml + compound 20 μM, 24 hours, FIG. 8. The procedure: as §1
as §2, with “HK-2” for “LX2”, “2×10^5” for “3.5×10^5”

The test system of series [6] is fibronectin. Kind of series: RT-qPCR gene expression of fibronectin in TGF-β treated HK-2 cells. Conditions: TGF-β 10 ng/ml + compound 20 μM, 24 hours, FIG. 9. The procedure: as §1
as §2, with “HK-2” for “LX2”, “2×10^5” for “3.5×10^5”

The test system of series [7] is collagen type 1 (COL1A1). Kind of series: Western blot protein expression of COL1A1 in TGF-β treated LX2 cells. To be noted: TGF-β 10 ng/ml + compound 20 μM, 48 hours, FIGS. 10 to 12. The source says: (§3) In order to confirm the inhibitory effect of the compound of the present invention on the protein expression of fibrosis-related markers, the protein expression of collagen type 1 (type 1 collagen; COL1A1) and fibronectin, which are fibrosis-related markers, and HSP60 was confirmed through Western blot analysis. As a control group, TGF-β (transforming growth factor-β) was used. TGF-β is known to promote the production of extracellular matrix such as collagen and promote fibrosis of tissues.
(§4) LX2 cells were seeded at 7.6×10^5 per dish in a 60 φ dish, cultured for 24 hours in a 37° C., 5% CO2 incubator, and then treated with TGF-β at a concentration of 10 ng/ml and the compound of the present invention (TB-840) at a concentration of 20 μM, and cultured for 48 hours. After collecting the cultured cells, the cell pellet was spun down using a centrifuge (13,000 rpm, 5 min, 4° C.) and then lysed by adding lysis buffer with vortexing for 1 hour at 10-minute intervals, and then cell membrane components, etc. were removed using a centrifuge (13,000 rpm, 20 min, 4° C.). The sample was prepared by measuring according to the protocol using a BCA protein assay kit. […] Thereafter, the primary antibody was reacted overnight, and then the secondary antibody was bound, and the protein expression of COL1A1 and fibronectin was measured using an Azure biosystems (C300) device.

Series [8] has as its system fibronectin. Kind of series: Western blot protein expression of fibronectin in TGF-β treated LX2 cells. Conditions: TGF-β 10 ng/ml + compound 20 μM, 48 hours, FIGS. 10 to 12.
From the text: as §3, §4

The test system of series [9] is HSP60. Kind of series: Western blot protein expression of HSP60 in TGF-β treated LX2 cells. To be noted: TGF-β 10 ng/ml + compound 20 μM, 48 hours, FIGS. 10 to 12.
From the text: as §3, §4

For series [10], the system named is collagen type 1 (COL1A1). Kind of series: Western blot protein expression of COL1A1 in TGF-β treated A549 cells. To be noted: TGF-β 10 ng/ml + compound 20 μM, 24 hours, FIGS. 13 to 15.
From the text: as §3
as §4, with “A549” for “LX2”, “2.5×10^5” for “7.6×10^5”, “well” for “dish”, “6 well plate,” for “60 φ dish,”, “24” for “48”

The subject of series [11] is fibronectin. Kind of series: Western blot protein expression of fibronectin in TGF-β treated A549 cells. To be noted: TGF-β 10 ng/ml + compound 20 μM, 24 hours, FIGS. 13 to 15.
From the text: as §3
as §4, with “A549” for “LX2”, “2.5×10^5” for “7.6×10^5”, “well” for “dish”, “6 well plate,” for “60 φ dish,”, “24” for “48”

Series [12] deals with HSP60. Description: Western blot protein expression of HSP60 in TGF-β treated A549 cells. Conditions: TGF-β 10 ng/ml + compound 20 μM, 24 hours, FIGS. 13 to 15.
From the text: as §3
as §4, with “A549” for “LX2”, “2.5×10^5” for “7.6×10^5”, “well” for “dish”, “6 well plate,” for “60 φ dish,”, “24” for “48”

The subject of series [13] is collagen type 1 (COL1A1). Kind of series: Western blot protein expression of COL1A1 in TGF-β treated HK-2 cells. To be noted: TGF-β 10 ng/ml + compound 20 μM, 48 hours, FIGS. 16 to 18.
From the text: as §3
as §4, with “HK-2” for “LX2”, “1×10^6” for “7.6×10^5”

Series [14] relates to fibronectin. Kind of series: Western blot protein expression of fibronectin in TGF-β treated HK-2 cells. Conditions: TGF-β 10 ng/ml + compound 20 μM, 48 hours, FIGS. 16 to 18.
From the text: as §3
as §4, with “HK-2” for “LX2”, “1×10^6” for “7.6×10^5”

Series [15] concerns HSP60. Description: Western blot protein expression of HSP60 in TGF-β treated HK-2 cells. Conditions: TGF-β 10 ng/ml + compound 20 μM, 48 hours, FIGS. 16 to 18.
From the text: as §3
as §4, with “HK-2” for “LX2”, “1×10^6” for “7.6×10^5”

For the compound `CNC(=S)NCc1ccc(OCc2ccccc2)cc1` [TB-840, 1-(4-benzyloxy-benzyl)-3-methyl-thiourea], the cell viability with LX2 cells, with A549 cells and with HK-2 cells was around 100% each time. Moreover, the “gene expression of COL1A1 compared to the group treated with TGF-β” value in the series on collagen type 1 (COL1A1) [1], in the series on collagen type 1 (COL1A1) [3] and with collagen type 1 (COL1A1) [5] was “reduced” each time. Also, the “gene expression of fibronectin compared to the group treated with TGF-β” value in the series with fibronectin [2], in the series on fibronectin [4] and in the series on fibronectin [6] was “reduced” each time. Moreover, the “protein expression of COL1A1 compared to the group treated with TGF-β” value in the series with collagen type 1 (COL1A1) [7], in the series with collagen type 1 (COL1A1) [10] and with collagen type 1 (COL1A1) [13] was “reduced” each time. Further, the “protein expression of fibronectin compared to the group treated with TGF-β” value in the series with fibronectin [8], with fibronectin [11] and with fibronectin [14] was “reduced” in each case. In addition, the “protein expression of HSP60” value in the series with HSP60 [9], in the series with HSP60 [12] and in the series on HSP60 [15] was “no change” throughout.
